Data published in ChEMBL document CHEMBL5226282, “TLR2 Agonistic Small Molecules: Detailed Structure-Activity Relationship, Applications, and Future Prospects” (J Med Chem, 2021).
pEC50: −log10 of the molar value.

Columns and labels:
[1] = target: Toll-like receptor 1/2 (Mus musculus); test: Agonist activity at TLR2/TLR1 in mouse Macrophage cell line
[2] = target: Toll-like receptor 1/2 (Homo sapiens, UniProt O60603+Q15399); test: Agonist activity at TLR2/TLR1 in human THP-1 cells; assay type: cell-based
Toll-like receptor 1/2, sequence (O60603 whole entry): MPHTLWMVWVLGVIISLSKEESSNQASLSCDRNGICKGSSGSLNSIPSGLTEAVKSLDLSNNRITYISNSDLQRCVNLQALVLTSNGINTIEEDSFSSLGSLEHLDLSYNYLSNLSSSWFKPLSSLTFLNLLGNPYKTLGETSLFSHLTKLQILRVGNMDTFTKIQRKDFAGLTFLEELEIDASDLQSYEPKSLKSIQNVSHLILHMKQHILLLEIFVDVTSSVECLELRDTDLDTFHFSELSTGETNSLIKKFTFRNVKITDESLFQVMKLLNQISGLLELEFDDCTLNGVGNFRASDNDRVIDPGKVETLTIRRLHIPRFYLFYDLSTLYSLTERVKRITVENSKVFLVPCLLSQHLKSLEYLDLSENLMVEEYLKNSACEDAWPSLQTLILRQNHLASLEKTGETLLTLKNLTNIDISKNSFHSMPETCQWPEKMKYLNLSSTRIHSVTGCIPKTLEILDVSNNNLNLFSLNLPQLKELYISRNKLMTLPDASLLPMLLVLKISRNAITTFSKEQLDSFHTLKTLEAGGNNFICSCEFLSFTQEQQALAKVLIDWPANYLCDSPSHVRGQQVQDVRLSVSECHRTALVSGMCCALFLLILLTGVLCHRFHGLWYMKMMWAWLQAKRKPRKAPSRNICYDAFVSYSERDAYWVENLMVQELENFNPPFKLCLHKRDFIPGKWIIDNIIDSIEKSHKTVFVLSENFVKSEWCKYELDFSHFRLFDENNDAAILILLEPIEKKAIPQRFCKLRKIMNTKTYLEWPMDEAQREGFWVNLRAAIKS
Toll-like receptor 1/2, sequence (Q15399 whole entry): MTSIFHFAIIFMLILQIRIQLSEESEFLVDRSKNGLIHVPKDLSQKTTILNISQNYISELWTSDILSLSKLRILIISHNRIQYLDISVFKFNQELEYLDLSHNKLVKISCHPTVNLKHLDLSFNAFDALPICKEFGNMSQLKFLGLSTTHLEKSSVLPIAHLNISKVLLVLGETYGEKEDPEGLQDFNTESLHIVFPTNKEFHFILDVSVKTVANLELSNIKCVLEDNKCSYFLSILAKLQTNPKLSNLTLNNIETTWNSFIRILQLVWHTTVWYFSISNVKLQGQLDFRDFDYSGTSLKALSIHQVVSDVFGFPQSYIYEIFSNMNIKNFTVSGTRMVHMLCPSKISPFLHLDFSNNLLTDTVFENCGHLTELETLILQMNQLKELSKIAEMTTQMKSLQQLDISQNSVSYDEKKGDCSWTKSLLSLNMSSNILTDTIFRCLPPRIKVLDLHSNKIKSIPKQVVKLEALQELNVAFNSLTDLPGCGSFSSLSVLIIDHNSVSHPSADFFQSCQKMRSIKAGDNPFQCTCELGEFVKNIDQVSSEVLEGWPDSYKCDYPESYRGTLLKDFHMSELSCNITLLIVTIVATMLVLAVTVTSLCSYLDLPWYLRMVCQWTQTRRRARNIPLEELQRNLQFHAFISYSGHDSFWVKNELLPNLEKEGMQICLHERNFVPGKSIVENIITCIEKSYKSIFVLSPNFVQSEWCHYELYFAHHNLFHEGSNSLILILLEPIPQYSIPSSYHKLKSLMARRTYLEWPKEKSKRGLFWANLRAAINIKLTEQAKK

pEC50 [1]	pEC50 [2]	Compound
< 5.30	7.70	O=C(N[C@H]1C[C@@H]1c1ccccc1)[C@@H]1CN(C(=O)c2cc(O)c(C(=O)N3C[C@@H](C(=O)N[C@H]4C[C@@H]4c4ccccc4)[C@H](C(=O)N[C@H]4C[C@@H]4c4ccccc4)C3)cc2O)C[C@H]1C(=O)N[C@H]1C[C@@H]1c1ccccc1
6.44	7.30	CCCCCCNC(=O)[C@@H]1CN(C(=O)c2ccc(C(=O)N3C[C@@H](C(=O)N[C@H]4C[C@@H]4c4ccccc4)[C@H](C(=O)N[C@@H]4C[C@H]4c4ccccc4)C3)cc2)C[C@H]1C(=O)NCCCCCC
5.96	7.46	CCCCCCCCCCNC(=O)[C@@H]1CN(C(=O)c2ccc(C(=O)N3C[C@@H](C(=O)NCCCCCCCCCC)[C@H](C(=O)N[C@@H]4C[C@H]4c4ccccc4)C3)cc2)C[C@H]1C(=O)N[C@@H]1C[C@H]1c1ccccc1
6.42	8.70	O=C(N[C@H]1C[C@@H]1c1ccccc1)[C@@H]1CN(C(=O)c2ccc3cc(C(=O)N4C[C@@H](C(=O)N[C@H]5C[C@@H]5c5ccccc5)[C@H](C(=O)N[C@H]5C[C@@H]5c5ccccc5)C4)ccc3c2)C[C@H]1C(=O)N[C@H]1C[C@@H]1c1ccccc1
6.19	10.00	CCCCCCCCCCNC(=O)[C@@H]1CN(C(=O)c2ccc(C(=O)N3C[C@@H](C(=O)N[C@H]4C[C@@H]4c4ccccc4)[C@H](C(=O)N[C@@H]4C[C@H]4c4ccccc4)C3)cc2)C[C@H]1C(=O)N[C@H]1C[C@@H]1c1ccccc1
< 5.30	< 5.30	O=C(N[C@H]1C[C@@H]1c1ccccc1)[C@@H]1CN(C(=O)[C@H]2CC[C@H](C(=O)N3C[C@@H](C(=O)N[C@H]4C[C@@H]4c4ccccc4)[C@H](C(=O)N[C@H]4C[C@@H]4c4ccccc4)C3)CC2)C[C@H]1C(=O)N[C@H]1C[C@@H]1c1ccccc1
< 5.30	< 5.30	O=C(N[C@H]1C[C@@H]1c1ccccc1)[C@@H]1CN(C(=O)c2cccc(C(=O)N3C[C@@H](C(=O)N[C@H]4C[C@@H]4c4ccccc4)[C@H](C(=O)N[C@H]4C[C@@H]4c4ccccc4)C3)c2)C[C@H]1C(=O)N[C@H]1C[C@@H]1c1ccccc1
8.68	10.00	CCCCCCCCCCCCNC(=O)[C@@H]1CN(C(=O)c2ccc(C(=O)N3C[C@@H](C(=O)N[C@H]4C[C@@H]4c4ccccc4)[C@H](C(=O)N[C@@H]4C[C@H]4c4ccccc4)C3)cc2)C[C@H]1C(=O)N[C@H]1C[C@@H]1c1ccccc1
< 5.30	< 5.30	O=C(N[C@H]1C[C@@H]1c1ccccc1)[C@@H]1CN(C(=O)[C@H]2CC[C@@H](C(=O)N3C[C@@H](C(=O)N[C@H]4C[C@@H]4c4ccccc4)[C@H](C(=O)N[C@H]4C[C@@H]4c4ccccc4)C3)CC2)C[C@H]1C(=O)N[C@H]1C[C@@H]1c1ccccc1
< 5.30	7.30	O=C(NCCc1ccc(F)cc1)[C@@H]1CN(C(=O)c2ccc(C(=O)N3C[C@@H](C(=O)NCCc4ccc(F)cc4)[C@H](C(=O)NCCc4ccc(F)cc4)C3)cc2)C[C@H]1C(=O)NCCc1ccc(F)cc1
< 5.30	6.89	O=C(NCCc1ccc(F)cc1)[C@@H]1CN(C(=O)c2ccc(C(=O)N3C[C@@H](C(=O)NCCc4ccc(F)cc4)[C@H](C(=O)NCCc4ccc(F)cc4)C3)c(O)c2)C[C@H]1C(=O)NCCc1ccc(F)cc1
< 5.30	7.70	O=C(N[C@H]1C[C@@H]1c1ccccc1)[C@@H]1CN(C(=O)c2ccc(C(=O)N3C[C@@H](C(=O)N[C@H]4C[C@@H]4c4ccccc4)[C@H](C(=O)N[C@H]4C[C@@H]4c4ccccc4)C3)c(O)c2)C[C@H]1C(=O)N[C@H]1C[C@@H]1c1ccccc1
< 5.30	< 5.30	O=C(N[C@H]1C[C@@H]1c1ccccc1)[C@@H]1CN(C(=O)[C@@H]2CCC[C@H](C(=O)N3C[C@@H](C(=O)N[C@H]4C[C@@H]4c4ccccc4)[C@H](C(=O)N[C@H]4C[C@@H]4c4ccccc4)C3)C2)C[C@H]1C(=O)N[C@H]1C[C@@H]1c1ccccc1
8.00	9.77	CCCCCCCCCCCCCCNC(=O)[C@@H]1CN(C(=O)c2ccc(C(=O)N3C[C@@H](C(=O)N[C@H]4C[C@@H]4c4ccccc4)[C@H](C(=O)N[C@@H]4C[C@H]4c4ccccc4)C3)cc2)C[C@H]1C(=O)NCCCCCCCCCCCCCC

Continued, compound first:

Compound	pEC50 [1]	pEC50 [2]
O=C(N[C@H]1C[C@@H]1c1ccccc1)[C@@H]1CN(C(=O)COCC(=O)N2C[C@@H](C(=O)N[C@H]3C[C@@H]3c3ccccc3)[C@H](C(=O)N[C@H]3C[C@@H]3c3ccccc3)C2)C[C@H]1C(=O)N[C@H]1C[C@@H]1c1ccccc1	< 5.30	< 5.30
CCCCCCCCCCCCCCCCNC(=O)[C@@H]1CN(C(=O)c2ccc(C(=O)N3C[C@@H](C(=O)N[C@H]4C[C@@H]4c4ccccc4)[C@H](C(=O)N[C@@H]4C[C@H]4c4ccccc4)C3)cc2)C[C@H]1C(=O)NCCCCCCCCCCCCCCCC	6.00	8.60
O=C(N[C@H]1C[C@@H]1c1ccccc1)[C@@H]1CN(C(=O)c2ccc(-c3ccc(C(=O)N4C[C@@H](C(=O)N[C@H]5C[C@@H]5c5ccccc5)[C@H](C(=O)N[C@H]5C[C@@H]5c5ccccc5)C4)cc3)cc2)C[C@H]1C(=O)N[C@H]1C[C@@H]1c1ccccc1	5.64	7.05
CCCCCCCCCCCCNC(=O)[C@@H]1CN(C(=O)c2ccc(C(=O)N3C[C@@H](C(=O)NCCCCCCCCCCCC)[C@H](C(=O)NCCCCCCCCCCCC)C3)cc2)C[C@H]1C(=O)NCCCCCCCCCCCC	< 8.30	< 8.30
O=C(NCCc1ccc(F)cc1)[C@@H]1CN(C(=O)C/C=C/CC(=O)N2C[C@@H](C(=O)NCCc3ccc(F)cc3)[C@H](C(=O)NCCc3ccc(F)cc3)C2)C[C@H]1C(=O)NCCc1ccc(F)cc1	< 5.30	< 5.30
O=C(O)[C@@H]1CN(C(=O)c2ccc(C(=O)N3C[C@@H](C(=O)O)[C@H](C(=O)N[C@@H]4C[C@H]4c4ccccc4)C3)cc2)C[C@H]1C(=O)N[C@@H]1C[C@H]1c1ccccc1	< 5.30	< 5.30
O=C(NCCc1ccc(F)cc1)[C@@H]1CN(C(=O)c2ccc3cc(C(=O)N4C[C@@H](C(=O)NCCc5ccc(F)cc5)[C@H](C(=O)NCCc5ccc(F)cc5)C4)ccc3c2)C[C@H]1C(=O)NCCc1ccc(F)cc1	< 5.30	< 5.30
CCCCCCCCCCCCCCNC(=O)[C@@H]1CN(C(=O)c2ccc(C(=O)N3C[C@@H](C(=O)N[C@H]4C[C@@H]4c4ccccc4)[C@H](C(=O)N[C@@H]4C[C@H]4c4ccccc4)C3)cc2)C[C@H]1C(=O)N[C@H]1C[C@@H]1c1ccccc1	8.96	10.10
O=C(N[C@H]1C[C@@H]1c1ccccc1)[C@@H]1CN(C(=O)c2cccc3c(C(=O)N4C[C@@H](C(=O)N[C@H]5C[C@@H]5c5ccccc5)[C@H](C(=O)N[C@H]5C[C@@H]5c5ccccc5)C4)cccc23)C[C@H]1C(=O)N[C@H]1C[C@@H]1c1ccccc1	< 5.30	< 5.30
O=C(NCCc1ccc(F)cc1)[C@@H]1CN(C(=O)C#CC(=O)N2C[C@@H](C(=O)NCCc3ccc(F)cc3)[C@H](C(=O)NCCc3ccc(F)cc3)C2)C[C@H]1C(=O)NCCc1ccc(F)cc1	< 5.30	< 5.30
O=C(N[C@H]1C[C@@H]1c1ccccc1)[C@@H]1CN(C(=O)/C=C/C(=O)N2C[C@@H](C(=O)N[C@H]3C[C@@H]3c3ccccc3)[C@H](C(=O)N[C@H]3C[C@@H]3c3ccccc3)C2)C[C@H]1C(=O)N[C@H]1C[C@@H]1c1ccccc1	< 5.30	< 5.30
O=C(N[C@H]1C[C@@H]1c1ccccc1)[C@@H]1CN(C(=O)c2cc(Br)c(C(=O)N3C[C@@H](C(=O)N[C@H]4C[C@@H]4c4ccccc4)[C@H](C(=O)N[C@H]4C[C@@H]4c4ccccc4)C3)cc2Br)C[C@H]1C(=O)N[C@H]1C[C@@H]1c1ccccc1	< 5.30	6.07
O=C(N[C@H]1C[C@@H]1c1ccccc1)[C@@H]1CN(C(=O)c2ccc(C(=O)N3C[C@@H](C(=O)N[C@H]4C[C@@H]4c4ccccc4)[C@H](C(=O)N[C@H]4C[C@@H]4c4ccccc4)C3)s2)C[C@H]1C(=O)N[C@H]1C[C@@H]1c1ccccc1	< 5.30	6.46
COC(=O)[C@@H]1CN(C(=O)c2ccc(C(=O)N3C[C@@H](C(=O)N[C@H]4C[C@@H]4c4ccccc4)[C@H](C(=O)N[C@@H]4C[C@H]4c4ccccc4)C3)cc2)C[C@H]1C(=O)N[C@H]1C[C@@H]1c1ccccc1	6.19	7.82
CCCCCCCCCCCCNC(=O)[C@@H]1CN(C(=O)c2ccc(C(=O)N3C[C@@H](C(=O)N[C@H]4C[C@@H]4c4ccccc4)[C@H](C(=O)N[C@@H]4C[C@H]4c4ccccc4)C3)cc2)C[C@H]1C(=O)NCCCCCCCCCCCC	6.21	8.89
CCCCCCCCCCCCCCNC(=O)[C@@H]1CN(C(=O)c2ccc(C(=O)N3C[C@@H](C(=O)NCCCCCCCCCCCCCC)[C@H](C(=O)NCCCCCCCCCCCCCC)C3)cc2)C[C@H]1C(=O)NCCCCCCCCCCCCCC	< 8.30	< 8.30
O=C(N[C@H]1C[C@@H]1c1ccccc1)[C@@H]1CN(C(=O)C/C=C/CC(=O)N2C[C@@H](C(=O)N[C@H]3C[C@@H]3c3ccccc3)[C@H](C(=O)N[C@H]3C[C@@H]3c3ccccc3)C2)C[C@H]1C(=O)N[C@H]1C[C@@H]1c1ccccc1	< 5.30	< 5.30
O=C(N[C@H]1C[C@@H]1c1ccccc1)[C@@H]1CN(C(=O)/C=C/C=C/C(=O)N2C[C@@H](C(=O)N[C@H]3C[C@@H]3c3ccccc3)[C@H](C(=O)N[C@H]3C[C@@H]3c3ccccc3)C2)C[C@H]1C(=O)N[C@H]1C[C@@H]1c1ccccc1	6.89	9.70
O=C(N[C@H]1C[C@@H]1c1ccccc1)[C@@H]1CN(C(=O)Cc2cnc(CC(=O)N3C[C@@H](C(=O)N[C@H]4C[C@@H]4c4ccccc4)[C@H](C(=O)N[C@H]4C[C@@H]4c4ccccc4)C3)cn2)C[C@H]1C(=O)N[C@H]1C[C@@H]1c1ccccc1	< 5.30	6.89
Cc1cc(C(=O)N2C[C@@H](C(=O)N[C@H]3C[C@@H]3c3ccccc3)[C@H](C(=O)N[C@H]3C[C@@H]3c3ccccc3)C2)c(C)cc1C(=O)N1C[C@@H](C(=O)N[C@H]2C[C@@H]2c2ccccc2)[C@H](C(=O)N[C@H]2C[C@@H]2c2ccccc2)C1	< 5.30	< 5.30
O=C(NCCc1ccc(F)cc1)[C@@H]1CN(C(=O)[C@H]2CC[C@H](C(=O)N3C[C@@H](C(=O)NCCc4ccc(F)cc4)[C@H](C(=O)NCCc4ccc(F)cc4)C3)CC2)C[C@H]1C(=O)NCCc1ccc(F)cc1	< 5.30	< 5.30
